# In patent US4174404A, “Deoxynarasin antibiotics” (Eli Lilly and Company, priority 1978, dated 1979):
# Counter-ions that a name gives are not always drawn.
# Experiments:
# rumen flora = assay: in vitro rumen volatile-fatty-acid (VFA) test; parameters: species or system ruminants
# Excerpt: As discussed, efficiency of carbohydrate utilization in ruminants is increased by treatments which stimulate the animal's rumen flora to produce propionate compounds rather than acetate or butyrate compounds. The efficiency of feed use can be monitored by observing the production and concentration of propionate compounds in rumen fluid, using methods as described in U.S. Pat. No. 4,038,384.
# Results of in vitro tests with 20-deoxynarasin (Na salt) and 20-deoxy-epi-17-narasin (free acid), showing the ratio of volatile-fatty-acid (VFA) concentrations in treated flasks to concentrations in control flasks, are shown in Table VIII.
# solubility = type: physicochemical; settings: for solubility in nonpolar organic solvents: nonpolar organic solvents such as hexane; for solubility in organic solvents: organic solvents (methanol, ethanol, dimethylformamide, dimethyl sulfoxide, ethyl acetate, chloroform, acetone, benzene)
# Excerpt: The deoxynarasin antibiotic complex comprises 20-deoxynarasin and 20-deoxy-epi-17-narasin which are obtained from the fermentation as a mixture. 20-Deoxynarasin and 20-deoxy-epi-17-narasin are separated from the deoxynarasin complex and isolated as individual compounds as hereinafter described. The deoxynarasin complex also contains minor factors which are removed by the procedures described. The deoxynarasin antibiotic complex is soluble in most organic solvents, but is insoluble in water.
# (§1) For example, 20-deoxynarasin acid (435.1 mg) was dissolved in methanol (40 ml) and allowed to stand at room temperature for four hours. The solution was then evaporated to dryness under vacuum; the residue was redissolved in dioxane and lyophilized to give 417.8 mg of 20-deoxy-epi-17-narasin acid.
# influenza A virus = assay: in vitro plaque suppression test; type: cell-based
# Excerpt: (§2) The deoxynarasin antibiotics are also antiviral agents.
# herpesvirus = assay: in vitro plaque suppression test; type: cell-based
# Excerpt: as §2
# vacinnia virus = assay: in vitro plaque suppression test; type: cell-based
# Excerpt: as §2
# rhinovirus type 3 = assay: in vitro plaque suppression test; type: cell-based; settings: rhinovirus type 3, in vitro
# Excerpt: as §2
# mice = assay: acute toxicity, intraperitoneal, mice; type: in vivo; settings: intraperitoneally to mice
# Eimeria tenella [1] = assay: in vitro anticoccidial activity; type: cell-based
# Excerpt: Anticoccidial activity is an important property of the deoxynarasin antibiotics of this invention.
# [2] = test system: Actinomyces israelii W855; assay: agar-dilution MIC, anaerobic bacteria; type: cell-based; settings: 24-hour incubation
# Protocol: (§3) In one aspect, the deoxynarasin antibiotics inhibit the growth of anaerobic bacteria. The minimal inhibitory concentrations (MIC) at which 20-deoxy-epi-17-narasin (free acid) inhibits various anaerobic bacteria, determined by standard agar-dilution assay, are summarized in Table V. End points were read after 24-hour incubation period.
# [3] = test system: Peptostreptococcus intermedius 1264; assay: agar-dilution MIC, anaerobic bacteria; type: cell-based; settings: 24-hour incubation
# Protocol: as §3
# [4] = test system: Eubacterium aerofaciens 1235; assay: agar-dilution MIC, anaerobic bacteria; type: cell-based; settings: Collinsella aerofaciens, 24-hour incubation
# Protocol: as §3
# Peptococcus prevoti 1281 = assay: agar-dilution MIC, anaerobic bacteria; type: cell-based; settings: 24-hour incubation
# Protocol: as §3
# [5] = test system: Peptostreptococcus anaerobius 1428; assay: agar-dilution MIC, anaerobic bacteria; type: cell-based; settings: 24-hour incubation
# Protocol: as §3
# Bacteroides fragilis 111 = assay: agar-dilution MIC, anaerobic bacteria; type: cell-based; settings: 24-hour incubation
# Protocol: as §3
# [6] = test system: Clostridium septicum 1128; assay: agar-dilution MIC, anaerobic bacteria; type: cell-based; settings: 24-hour incubation
# Protocol: as §3
# [7] = test system: Propionibacterium acnes 79; assay: agar-dilution MIC, anaerobic bacteria; type: cell-based; settings: Cutibacterium acnes, 24-hour incubation
# Protocol: as §3
# [8] = test system: Peptococcus asaccharolyticus 1302; assay: agar-dilution MIC, anaerobic bacteria; type: cell-based; settings: Peptoniphilus asaccharolyticus, 24-hour incubation
# Protocol: as §3
# M. gallisepticum = assay: in vitro broth-dilution MIC, Mycoplasma; type: cell-based; settings: Mycoplasmoides gallisepticum
# Excerpt: (§4) Activity against Mycoplasma is another useful aspect of the antimicrobial activity of the deoxynarasin antibiotics. Mycoplasma species, also known as pleuropneumonia-like (PPLO) organisms, are pathogenic to man and various animals. Agents active against PPLO organisms are especially needed by the poultry industry. The minimal inhibitory concentrations (MIC) of 20-deoxy-epi-17-narasin (free acid) against illustrative Mycoplasma species, as determined by in vitro broth-dilution studies, are summarized in Table VI.
# M. hyorhinis = assay: in vitro broth-dilution MIC, Mycoplasma; type: cell-based; settings: Mesomycoplasma hyorhinis
# Excerpt: as §4
# M. synoviae = assay: in vitro broth-dilution MIC, Mycoplasma; type: cell-based; settings: Mycoplasmopsis synoviae
# Excerpt: as §4
# [9] = test system: Clostridium perfringens 81; assay: microbe, parasite or virus in culture; type: cell-based; settings: Clostridium perfringens, 81, 24 h
# [10] = test system: Staphlococcus aureus 3055; assay: disc-diffusion method, zone of inhibition; type: cell-based
# Excerpt: (§5) The deoxynarasin antibiotics of this invention are antibacterial agents. For example, the relative microbiological activity of 20-deoxy-epi-17-narasin (free acid) is described in Table IV. The conventional disc-diffusion method was used.
# [11] = test system: Streptococcus pyogenes (Group A); assay: disc-diffusion method, zone of inhibition; type: cell-based
# Excerpt: as §5
# [12] = test system: Staphylococcus aureus 3130 (Methicillin Resistant); assay: disc-diffusion method, zone of inhibition; type: cell-based
# Excerpt: as §5
# [13] = test system: Streptococcus sp. (Group D); assay: disc-diffusion method, zone of inhibition; type: cell-based
# Excerpt: as §5
# [14] = test system: Staphylococcus aureus 3074 (Penicillin G Resistant); assay: disc-diffusion method, zone of inhibition; type: cell-based
# Excerpt: as §5
# Diplococcus pneumoniae = assay: disc-diffusion method, zone of inhibition; type: cell-based; settings: Streptococcus pneumoniae
# Excerpt: as §5
# [15] = test system: isolated guinea-pig atria; assay: isolated guinea-pig atria contractility; type: cell-based; settings: Cavia porcellus; 10^-5 molar; percentage of maximal contractile tension elicited by norepinephrine challenge; n=4; read-out: mean (± standard error) increase in contractile tension
# Excerpt: 20-Deoxynarasin and its salts are also potential cardiotonic agents. In tests using isolated guinea-pig atria, for example, 20-deoxynarasin increased cardiac contractility. Response to this test is expressed as a percentage of the maximal contractile tension that could be elicited by a challenge dose of norepinephrine (10^-4)M). 20-Deoxynarasin (Na salt), at a 10^-5 molar concentration, produced a mean (± standard error) increase in contractile tension of 43.8±1.4 (n=4) percent. For a more detailed description of this test, see U.S. Pat. No. 3,985,893.
# [16] = target: cation transport ATPase in liver mitochondria; assay: in vitro ATPase inhibition; type: biochemical
# Excerpt: In yet another aspect, 20-deoxynarasin and its salts are active as an inhibitor of the enzyme ATPase. ATPase, an alkali-metal-sensitive enzyme found in cell membranes, is involved in the energy necessary for active transport. "Active transport" refers to the energy-requiring series of operations whereby intracellular and extracellular fluids maintain their compositions. Inhibitors of ATPase reduce the energy required for active transport. In vitro tests have shown that 20-deoxynarasin (Na salt) inhibits cation transport ATPase in liver mitochondria at a half effective concentration of 0.065 mcg/ml.
# stability in alcohols = type: physicochemical; settings: converts to 20-deoxy-epi-17-narasin free acid (methanol, room temperature, four hours)
# Protocol: as §1
# Eimeria tenella [17] = assay: feeding experiment in young chickens challenged with Eimeria tenella; type: in vivo; settings: 100 ppm in the diet, chicks challenged with Eimeria tenella, Na salt
# Excerpt: A feeding experiment in young chickens confirms that the deoxynarasin antibiotics have anticoccidial activity in vivo.
structure (smiles),measurement,setting,value
CCC(C(=O)O)C1OC(C(C)C(O)C(C)C(=O)C(CC)C2OC3(C=CCC4(CCC(C)(C5CCC(O)(CC)C(C)O5)O4)O3)C(C)CC2C)C(C)CC1C (stereo not drawn) [20-deoxy-epi-17-narasin],"Ratio of Treated to Control, Molar % acetate",rumen flora; dose 2 mcg/ml,0.9581
same,"Ratio of Treated to Control, Molar % butyrate",rumen flora; dose 2 mcg/ml,0.9414
same,"Ratio of Treated to Control, Molar % propionate",rumen flora; dose 2 mcg/ml,1.0858
same,"Ratio of Treated to Control, Total VFA",rumen flora; dose 2 mcg/ml,1.0717
same,"Ratio of Treated to Control, Molar % acetate",rumen flora; dose 5 mcg/ml,0.9237
same,"Ratio of Treated to Control, Molar % butyrate",rumen flora; dose 5 mcg/ml,0.8201
same,"Ratio of Treated to Control, Molar % propionate",rumen flora; dose 5 mcg/ml,1.1836
same,"Ratio of Treated to Control, Total VFA",rumen flora; dose 5 mcg/ml,1.0487
same,"Ratio of Treated to Control, Molar % acetate",rumen flora; dose 10 mcg/ml,0.9093
same,"Ratio of Treated to Control, Molar % butyrate",rumen flora; dose 10 mcg/ml,0.6560
same,"Ratio of Treated to Control, Molar % propionate",rumen flora; dose 10 mcg/ml,1.2665
same,"Ratio of Treated to Control, Total VFA",rumen flora; dose 10 mcg/ml,1.0325
same,solubility in nonpolar organic solvents,solubility,only slightly soluble
same,solubility in organic solvents,solubility,soluble
same,solubility in water,solubility,insoluble
same,antiviral activity (plaque suppression),influenza A virus,active
same,antiviral activity (plaque suppression),herpesvirus,active
same,antiviral activity (plaque suppression),vacinnia virus,active
same,antiviral activity (plaque suppression),rhinovirus type 3,active
same,acute toxicity LD50,mice,201 mg/kg
same,level at which active against Eimeria tenella (as low as),Eimeria tenella [1],0.2 ppm
same,MIC,[2],8 µg/mL
same,MIC,[3],4 µg/mL
same,MIC,[4],16 µg/mL
same,MIC,Peptococcus prevoti 1281,4 µg/mL
same,MIC,[5],4 µg/mL
same,MIC,Bacteroides fragilis 111,> 128 µg/mL
same,MIC,[6],16 µg/mL
same,MIC,[7],2 µg/mL
same,MIC,[8],8 µg/mL
same,MIC,M. gallisepticum,25 µg/mL
same,MIC,M. hyorhinis,50 µg/mL
same,MIC,M. synoviae,50 µg/mL
same,MIC,[9],16 µg/mL
same,zone of inhibition at 30 µg/disc,[10]; 30 mcg/disc,13.8 mm
same,zone of inhibition at 300 µg/disc,[10]; 300 mcg/disc,16.9 mm
same,zone of inhibition at 30 µg/disc,[11]; 30 mcg/disc,10 mm
same,zone of inhibition at 300 µg/disc,[11]; 300 mcg/disc,12 mm
same,zone of inhibition at 30 µg/disc,[12]; 30 mcg/disc,17.2 mm
same,zone of inhibition at 300 µg/disc,[12]; 300 mcg/disc,19 mm
same,zone of inhibition at 30 µg/disc,[13]; 30 mcg/disc,14.6 mm
same,zone of inhibition at 300 µg/disc,[13]; 300 mcg/disc,17 mm
same,zone of inhibition at 30 µg/disc,[14]; 30 mcg/disc,15.4 mm
same,zone of inhibition at 300 µg/disc,[14]; 300 mcg/disc,19.5 mm
same,zone of inhibition at 30 µg/disc,Diplococcus pneumoniae; 30 mcg/disc,13 mm
same,zone of inhibition at 300 µg/disc,Diplococcus pneumoniae; 300 mcg/disc,16 mm
CCC(C(=O)O)C1OC(C(C)C(O)C(C)C(=O)C(CC)C2OC3(C=CCC4(CCC(C)(C5CCC(O)(CC)C(C)O5)O4)O3)C(C)CC2C)C(C)CC1C (stereo not drawn) [20-deoxynarasin (Na salt)],acute toxicity LD50,mice,5 mg/kg
same,minimal effective concentration,"Eimeria tenella [1]; Eimeria tenella, read-out: level at which active against Eimeria tenella (as low as)",0.2 µg/mL
same,activation at 10 µM,[15],43.8 ± 1.4%
same,"half effective concentration, inhibition of cation transport ATPase",[16],0.065 µg/mL
"CCC(C(=O)O)C1OC(C(C)C(O)C(C)C(=O)C(CC)C2OC3(C=CCC4(CCC(C)(C5CCC(O)(CC)C(C)O5)O4)O3)C(C)CC2C)C(C)CC1C (stereo not drawn) [20-deoxynarasin, 20-Deoxynarasin]",stability in alcohols,stability in alcohols,unstable
same,"Ratio of Treated to Control, Molar % acetate",rumen flora; dose 0.1 mcg/ml,0.9504
same,"Ratio of Treated to Control, Molar % butyrate",rumen flora; dose 0.1 mcg/ml,0.6870
same,"Ratio of Treated to Control, Molar % propionate",rumen flora; dose 0.1 mcg/ml,1.2148
same,"Ratio of Treated to Control, Total VFA",rumen flora; dose 0.1 mcg/ml,1.1892
same,"Ratio of Treated to Control, Molar % acetate",rumen flora; dose 0.3 mcg/ml,0.9084
same,"Ratio of Treated to Control, Molar % butyrate",rumen flora; dose 0.3 mcg/ml,0.4582
same,"Ratio of Treated to Control, Molar % propionate",rumen flora; dose 0.3 mcg/ml,1.3799
same,"Ratio of Treated to Control, Total VFA",rumen flora; dose 0.3 mcg/ml,1.1829
same,"Ratio of Treated to Control, Molar % acetate",rumen flora; dose 1 mcg/ml,0.8727
same,"Ratio of Treated to Control, Molar % butyrate",rumen flora; dose 1 mcg/ml,0.3942
same,"Ratio of Treated to Control, Molar % propionate",rumen flora; dose 1 mcg/ml,1.4597
same,"Ratio of Treated to Control, Total VFA",rumen flora; dose 1 mcg/ml,1.2096
same,solubility in nonpolar organic solvents,solubility,only slightly soluble
same,solubility in organic solvents,solubility,soluble
same,solubility in water,solubility,insoluble
same,% Mortality,Eimeria tenella [17],0%
same,Weight Gain,Eimeria tenella [17],185 g
same,Lesion Score,Eimeria tenella [17]; maximum possible score = 4.00,0.13
